Results on one molecule are retold here after patent publication US20210161855A1, “5-LIPOXYGENASE ANTAGONISTS” (INSTITUTO DE MEDICINA MOLECULAR JOÃO LOBO ANTUNES, priority 2017, published 2021).

Like-named read-outs stand apart in the source and are kept apart here.

In one experiment the target is EP2 (Homo sapiens, UniProt P43116). The experiment can be described thus: Prostanoid EP2 receptor antagonism, functional assay. The experiment is classed as cell-based. The following applies: 150 μM.
The next experiment concerns the target T1, 5-LO (Homo sapiens, UniProt P09917).
T1 sequence (P09917 1-674): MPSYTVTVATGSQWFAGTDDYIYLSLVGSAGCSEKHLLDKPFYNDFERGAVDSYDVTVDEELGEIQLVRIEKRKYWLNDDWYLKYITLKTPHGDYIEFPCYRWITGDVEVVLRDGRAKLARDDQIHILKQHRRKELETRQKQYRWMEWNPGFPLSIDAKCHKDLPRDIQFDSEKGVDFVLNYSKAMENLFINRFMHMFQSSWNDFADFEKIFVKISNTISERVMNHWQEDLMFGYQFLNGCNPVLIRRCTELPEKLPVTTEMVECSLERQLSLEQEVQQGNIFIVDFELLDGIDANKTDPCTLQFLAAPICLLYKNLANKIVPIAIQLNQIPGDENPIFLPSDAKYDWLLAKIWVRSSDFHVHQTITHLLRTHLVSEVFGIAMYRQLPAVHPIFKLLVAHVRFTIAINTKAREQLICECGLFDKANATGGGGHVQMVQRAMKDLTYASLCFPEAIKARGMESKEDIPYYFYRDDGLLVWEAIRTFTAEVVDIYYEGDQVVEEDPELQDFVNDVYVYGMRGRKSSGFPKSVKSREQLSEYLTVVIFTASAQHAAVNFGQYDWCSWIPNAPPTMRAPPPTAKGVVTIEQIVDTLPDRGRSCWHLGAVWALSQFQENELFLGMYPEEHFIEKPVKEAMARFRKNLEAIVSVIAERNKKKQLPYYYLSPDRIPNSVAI
The experiment can be described thus: 5-LO activity in neutrophil homogenates. The experiment is classed as biochemical. Also noted: endogenous in cells; host or cells: neutrophils isolated from peripheral blood of healthy adult volunteers; intact or sonicated homogenates. The conditions noted are these: n=3. The procedure:
Peripheral blood (University Hospital Jena, Germany) was withdrawn from healthy adult volunteers with consent that had not taken any anti-inflammatory drugs during the last 10 days, by venipuncture in heparinized tubes (16 IE heparin/mL blood). The blood was centrifuged at 4000 g for 20 min at 20° C. for preparation of leukocyte concentrates. Leukocyte concentrates were then subjected to dextran sedimentation and centrifugation on lymphocyte separation medium (LSM 1077, PAA, Colbe, Germany). Contaminating erythrocytes of pelleted neutrophils were removed by hypotonic Iysis. Neutrophils were then washed twice in ice-cold PBS and finally resuspended in PBS pH 7.4 containing 1 mg/mL glucose or in PBS pH 7.4 containing 1 mg/mL glucose plus 1 mM CaCl2 (PGC buffer) (purity>96-97%).
For analysis of 5-LO product formation in corresponding homogenates, neutrophils were resuspended in PBS containing 1 mM EDTA for 5 min at 4° C. and sonicated (4×10 s, 4° C.). Homogenates, corresponding to 5×10^6 cells/mL, were incubated with the test compounds or vehicle (0.1% DMSO) with or without 1 mM DTT for 15 min at 4° C., pre-warmed for 30 s at 37° C., and the reaction was started by the addition of 2 mM CaCl2 plus the indicated concentrations of AA (routinely 20 μM). The reaction was stopped after 10 min and the samples were analyzed as described for intact cells above.
Data are expressed as mean±S.E.M. IC50 values were calculated from averaged measurements at 6 different concentrations of the compound by nonlinear regression using GraphPad Prism software (San Diego, Calif.) one site binding competition. Statistical evaluation of the data was performed by one-way ANOVA followed by a Tukey-Kramer post-hoc test for multiple comparisons respectively. A p value<0.05 (*) was considered significant.

Experiment [1] has as its target T2, 15-lipoxygenase-2 (15-LO-2) (Homo sapiens, UniProt O15296).
T2 sequence (O15296 1-676): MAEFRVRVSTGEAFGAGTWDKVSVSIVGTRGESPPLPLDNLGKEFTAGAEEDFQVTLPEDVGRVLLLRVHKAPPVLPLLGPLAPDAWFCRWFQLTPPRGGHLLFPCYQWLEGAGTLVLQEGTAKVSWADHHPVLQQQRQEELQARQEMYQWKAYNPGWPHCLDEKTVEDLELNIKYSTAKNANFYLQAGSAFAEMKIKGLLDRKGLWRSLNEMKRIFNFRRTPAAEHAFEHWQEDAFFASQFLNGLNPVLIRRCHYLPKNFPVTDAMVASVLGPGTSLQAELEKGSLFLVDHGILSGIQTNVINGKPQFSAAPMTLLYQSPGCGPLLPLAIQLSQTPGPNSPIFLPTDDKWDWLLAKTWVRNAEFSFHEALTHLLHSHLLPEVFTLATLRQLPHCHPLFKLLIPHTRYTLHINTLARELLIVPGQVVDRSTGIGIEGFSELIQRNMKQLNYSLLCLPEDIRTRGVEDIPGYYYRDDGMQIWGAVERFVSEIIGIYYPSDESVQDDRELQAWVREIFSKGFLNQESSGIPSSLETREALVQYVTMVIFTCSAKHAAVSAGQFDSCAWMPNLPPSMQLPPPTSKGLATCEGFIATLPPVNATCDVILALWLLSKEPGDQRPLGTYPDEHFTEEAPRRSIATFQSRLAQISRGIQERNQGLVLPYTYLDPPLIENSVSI
The experiment can be described thus: 15-LO-2 inhibition assay, Method A (Cerep). The experiment is classed as biochemical. How it is done: Method A: 5-Lipoxygenase (5-LO), 12-lipoxygenase (12-LO) and 15-lipoxygenase-2 (15-LO-2) inhibition assays were performed at Cerep, SA (Celle l'Evescault, France) on a fee-for-service basis (Ref 0772^36, 0883^37 and 0893^38, respectively), as described in Table 1.

The target in the next experiment is T3, purified human 5-LO (Homo sapiens, UniProt P09917).
T3 construct: purchased Abcam ab114310
T3 sequence (P09917 1-674): T1 sequence (P09917 1-674)
The experiment can be described thus: Intrinsic tryptophan fluorescence. The experiment is classed as binding. The conditions noted are these: 1 mM dithiothreitol, increasing concentrations. How it is done:
5-Lipoxygenase (Cat No. ab114310, Abcam) was concentrated to 0.5 μM in buffer (50 mM Tris-HCl, pH 8.0, 5 mM CaCl2). […] The final DMSO concentration was kept under 0.1%. Fluorescent measurements were performed using a 1 cm pathlength quartz cuvette. Spectra were collected in an Edinburgh Instruments FLS920 Series Fluorescence Spectrophotometer at 25° C. with fluorescence excitation and scanning emission set to 295 nm and 310 to 450 nm, respectively. All assays were carried out in triplicate.

Broadly, the IC50 is the concentration that inhibits the measured activity by half. A word on the inhibition: it is the drop in the measured response relative to a control, in per cent.

EP2, sequence (P43116 whole entry): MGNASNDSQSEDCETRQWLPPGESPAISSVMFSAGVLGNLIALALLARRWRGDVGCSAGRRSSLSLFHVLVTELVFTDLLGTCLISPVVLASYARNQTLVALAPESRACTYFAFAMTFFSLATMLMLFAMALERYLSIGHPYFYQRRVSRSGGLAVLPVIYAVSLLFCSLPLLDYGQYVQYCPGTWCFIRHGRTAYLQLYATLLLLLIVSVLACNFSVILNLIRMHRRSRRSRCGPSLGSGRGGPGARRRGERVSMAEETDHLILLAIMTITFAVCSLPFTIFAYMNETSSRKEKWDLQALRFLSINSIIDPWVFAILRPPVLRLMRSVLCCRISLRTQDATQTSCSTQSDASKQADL

In turn, `CC1(C)CCC2=C(O1)c1ccccc1C(=O)C2=O` [Compound 1, 3,4-dihydro-2,2-dimethyl-2H-naphtho[1,2-b]pyran-5,6-dione] had an EP2 antagonist effect on EP2 of 60%. Also, the IC50 at 5-LO (1 mM DTT, read-out: IC50 (with DTT), 5-LO activity in neutrophil homogenates) was determined as 90 nM; on 5-LO (absence of DTT, read-out: IC50 (without DTT), 5-LO activity in neutrophil homogenates), 5200 nM. The inhibition at 5 µM in experiment [1] is -13%. On purified human 5-LO, the Tryptophan fluorescence shift entry is listed as “blue shift”.
